In patent publication US8173682B2, “Substituted pyridones as inhibitors of poly(ADP-ribose) polymerase (PARP)” (Aventis Pharmaceuticals Inc., priority 2004, dated 2012) one finds IC50 data, which are given here for 30 compounds.

Structures are written as SMILES. Where a name gives a salt, the structure may show the parent alone.

The target in experiment [1] is recombinantly expressed human PARP-1 enzyme (Homo sapiens, UniProt P09874). The experiment can be described thus: PARP enzyme assay, Method B (tritium-labeled NAD incorporation). Type of experiment: biochemical. The conditions noted are these: Method B; 200 μM NAD, room temperature 1 hour, pH 8.0; read-out: IC50 (μM)/Method B. As for the experimental part: Method B: PARP Enzyme Assay:
The IC50 is determined in this method by incubating the substances to be tested with the DNA-activated, recombinantly expressed and purified PARP-1 enzyme. Specifically, various concentrations of the test substance are incubated in 50 μL of reaction solution, which contains 50 mM Tris, 5 mM MgCl2, 1 mM DTT, 200 μM NAD, 0.1 m Ci/mL tritium-labeled NAD, 0.1 mg/mL DNA, 0.1 mg/mL histones, 2 μg/mL recombinantly expressed human PARP-1 enzyme, pH=8.0, at room temperature for 1 hour. The reaction is stopped by adding 150 μL of 20% trichloroacetic acid, and the radiolabeled protein constituents are precipitated. After incubation on ice for 10 minutes, the labeled, insoluble constituents are separated off through a glass fiber filter and, after washing with 20% trichloroacetic acid three times, the radioactivity incorporated by the PARP-1 enzyme is measured by radioluminescence. Consideration of the incorporation rates determined in this way as a function of the concentration of the test substance results in IC50 as the concentration of the test substance which reduces the incorporation rate to half the maximum value attainable (incubation without inhibitor).
The IC50 (fifty percent inhibitory concentration of the test substance in a solution—expressed at micromolar (μM) concentration) measured in accordance with these procedures for the compounds of this invention are summarized in Table 1.

Experiment [2] addresses T1, recombinant human PARP (PARP1) (Homo sapiens, UniProt P09874).
T1 construct: Full length human PARP (PARP1) is assembled from PCR fragments; His6 tag with TEV site, from the pFastBac-HTb vector (own knowledge of the vector); made in house; host or cells: insect cells, baculovirus (Bac-to-Bac, Gibco-BRL)
Nature of the experiment: PARP enzyme assay, Method A (radioactivity or 'ELISA' enzyme assay with partially purified enzyme). As to conditions: recombinant human PARP preparation, radioactive or ELISA enzyme assay. Type of experiment: biochemical. Summed up: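 Partially purified recombinant full-length His-tagged human PARP1, baculovirus-expressed. Radioactive format: 100 μg/mL sonicated DNA, 100 μg/mL histones, 100 mM Tris pH 8.0, 10 mM MgCl2, 200 μM labeled NAD, 10 min 37 °C or 60 min RT, TCA-precipitated counts. ELISA format: 250 μM NAD plus biotin-NAD on histone plates, TMB A450.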

T1 sequence (P09874 whole entry, the tested form may be a part): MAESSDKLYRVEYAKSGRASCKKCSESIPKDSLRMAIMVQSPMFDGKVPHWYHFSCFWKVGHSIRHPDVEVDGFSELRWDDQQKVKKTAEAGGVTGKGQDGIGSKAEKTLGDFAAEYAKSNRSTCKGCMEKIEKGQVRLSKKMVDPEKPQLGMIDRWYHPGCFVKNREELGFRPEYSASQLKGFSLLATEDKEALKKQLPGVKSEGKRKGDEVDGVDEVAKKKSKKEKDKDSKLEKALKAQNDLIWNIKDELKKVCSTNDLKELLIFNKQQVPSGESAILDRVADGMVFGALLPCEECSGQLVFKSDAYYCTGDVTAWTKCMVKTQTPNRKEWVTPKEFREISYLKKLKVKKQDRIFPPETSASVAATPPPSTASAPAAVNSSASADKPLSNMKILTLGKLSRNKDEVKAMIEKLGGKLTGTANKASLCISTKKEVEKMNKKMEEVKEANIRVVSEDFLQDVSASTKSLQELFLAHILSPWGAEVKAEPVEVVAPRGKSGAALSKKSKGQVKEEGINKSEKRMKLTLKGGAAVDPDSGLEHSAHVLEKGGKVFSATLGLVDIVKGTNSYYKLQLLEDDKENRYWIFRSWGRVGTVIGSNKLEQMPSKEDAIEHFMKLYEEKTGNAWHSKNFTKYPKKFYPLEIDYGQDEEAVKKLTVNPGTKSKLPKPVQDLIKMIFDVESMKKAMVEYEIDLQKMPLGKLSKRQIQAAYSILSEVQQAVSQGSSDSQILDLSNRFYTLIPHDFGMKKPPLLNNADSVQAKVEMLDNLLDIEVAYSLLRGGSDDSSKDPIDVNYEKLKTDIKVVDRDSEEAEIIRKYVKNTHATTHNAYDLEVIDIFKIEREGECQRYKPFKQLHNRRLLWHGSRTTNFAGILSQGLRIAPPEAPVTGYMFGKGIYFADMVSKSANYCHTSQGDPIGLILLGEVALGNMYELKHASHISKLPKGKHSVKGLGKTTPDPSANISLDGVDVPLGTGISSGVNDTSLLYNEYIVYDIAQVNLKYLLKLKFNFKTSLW
recombinantly expressed human PARP-1 enzyme, sequence (P09874 whole entry): as the sequence (P09874 whole entry, the tested form may be a part) above

In the case of `CCc1cc(-c2ccc(CNCCc3ccc(Cl)c(S(N)(=O)=O)c3)o2)c(C)[nH]c1=O` [Example 182C, 2-Chloro-5-(2-{[5-(5-ethyl-2-methyl-6-oxo-1,6-dihydro-pyridin-3-yl)-furan-2-ylmethyl]-amino}-ethyl)-benzenesulfonamide], the IC50 in experiment [1] amounted to 0.28 µM.

Regarding `CCc1cc(-c2cncc(C(=O)N(C)CC(N)=O)c2)c(C)[nH]c1=O` [Example 233, 5′-Ethyl-2′-methyl-6′-oxo-1′,6′-dihydro-[3,3′]bipyridinyl-5-carboxylic acid carbamoylmethyl-methyl-amide], the IC50 in experiment [1] is 1.65 µM.

In the case of `CCc1cc(-c2ccc(CNCc3ccccc3F)s2)c(C)[nH]c1=O` [Example 192, 3-Ethyl-5-{5-[(2-fluoro-benzylamino)-methyl]-thiophen-2-yl}-6-methyl-1H-pyridin-2-one hydrochloride], the IC50 in experiment [2] is 0.26 µM.

Consider `CCc1cc(-c2ccc(S(=O)(=O)N(C)C3CCN(C)CC3)s2)c(C)[nH]c1=O` [Example 77, 5-[5-Ethyl-2-methyl-6-oxo-1,6-dihydropyridin-3-yl]thiophene-2-sulfonic acid methyl-(1-methylpiperidin-4-yl]amide hydrochloride], for which the IC50 in experiment [2] was 0.28 µM.

Take `CCc1cc(-c2ccc(S(=O)(=O)N3CCNCC3)s2)c(C)[nH]c1=O` [Example 94, 3-Ethyl-6-methyl-5-[5-(piperazine-1-sulfonyl)thiophen-2-yl]-1H-pyridin-2-one hydrochloride]: the IC50 in experiment [2] came out at 1.4 µM.

For the compound `CCc1cc(-c2nnco2)c(C)[nH]c1=O` [Example 14, 3-Ethyl-6-methyl-5-(1,3,4-oxadiazol-2-yl)-1H-pyridin-2-one], in experiment [2], the IC50 was found to be 0.56 µM.

As to `CCc1cc(-c2ccc(CNCc3cc(F)cc(F)c3)s2)c(C)[nH]c1=O` [Example 158, 5-[5-(3,5-Difluorobenzylaminomethyl)thiophen-2-yl]-3-ethyl-6-methyl-1H-pyridin-2-one hydrochloride], the IC50 in experiment [2] came to 0.51 µM.

Turning to `CCc1cc(-c2nc[nH]n2)c(C)[nH]c1=O` [Example 16, 3-Ethyl-6-methyl-5-(2H-1,2,4-triazol-3-yl)-1H-pyridin-2-one], the IC50 in experiment [2] was found to be 0.35 µM.

For the compound `CCc1cc(-c2n[nH]c(C)n2)c(C)[nH]c1=O` [Example 21, 3-Ethyl-6-methyl-5-(5-methyl-2H-1,2,4-triazol-3-yl)-1H-pyridin-2-one], the IC50 in experiment [2] is 0.17 µM.

For the compound `CCc1cc(-c2ccc(S(=O)(=O)NCCCN3CCCC3)o2)c(C)[nH]c1=O` [Example 49, 5-(5-Ethyl-2-methyl-6-oxo-1,6-dihydropyridin-3-yl)furan-2-sulfonic Acid (3-pyrrolidin-1-yl)propylamide hydrochloride], the IC50 in experiment [2] came to 0.18 µM.

Consider `CCc1cc(-c2ccc(CN3CCC(F)C3)s2)c(C)[nH]c1=O` (stereo not drawn) [Example 173, 5-{5-[(3-Fluoropyrrolidin-1-ylmethyl)(thiophen-2-yl)-3-ethyl-6-methyl-1H-pyridin-2-one hydrochloride], for which the IC50 in experiment [2] came out at 0.22 µM.

As for `CCc1cc(-c2ccc(S(=O)(=O)N(C)Cc3cc(F)cc(F)c3)s2)c(C)[nH]c1=O` [Example 29, 5-(5-Ethyl-2-methyl-6-oxo-1,6-dihydropyridin-3-yl)thiophene-2-sulfonic acid (3,5-difluorobenzyl)methylamide], the IC50 in experiment [2] turned out to be 0.57 µM.

Take `CCc1cc(-c2ccc(S(=O)(=O)NCc3cccnc3)o2)c(C)[nH]c1=O` [Example 55, 5-(5-Ethyl-2-methyl-6-oxo-1,6-dihydropyridin-3-yl)furan-2-sulfonic acid (pyridin-3-yl)methylamide hydrochloride]: the IC50 in experiment [2] turned out to be 0.22 µM.

For the compound `CCc1cc(-c2ccc(S(=O)(=O)N3CCN(CCN4CCCC4)CC3)s2)c(C)[nH]c1=O` [Example 61, 3-Ethyl-6-methyl-5-{5-[4-(2-pyrrolidin-1-yl)ethylpiperazine-1-sulfonyl]thiophen-2-yl}-1H-pyridin-2-one dihydrochloride], in experiment [2], the IC50 was 0.43 µM.

`CCc1cc(-c2ccc(S(=O)(=O)NCCOc3ccccc3)s2)c(C)[nH]c1=O` [Example 98, 5-(5-Ethyl-2-methyl-6-oxo-1,6-dihydropyridin-3-yl)-thiophene-2-sulfonic acid (2-phenoxyethyl)amide]: the IC50 in experiment [2] is 0.41 µM.

As for `CCc1cc(-c2ccc(S(=O)(=O)NCCN3CCOCC3)o2)c(C)[nH]c1=O` [Example 47, 5-(5-Ethyl-2-methyl-6-oxo-1,6-dihydropyridin-3-yl)furan-2-sulfonic acid (2-morpholin-4-yl)ethylamide hydrochloride], in experiment [2], the IC50 worked out at 0.89 µM.

Regarding `CCc1cc(-c2nnc(C)o2)c(C)[nH]c1=O` [Example 15, 3-Ethyl-6-methyl-5-(5-methyl-1,3,4-oxadiazol-2-yl)-1H-pyridin-2-one], the IC50 in experiment [2] is 0.72 µM.

`CCc1cc(-c2ccc(CNC3CCc4ccccc4C3)s2)c(C)[nH]c1=O` (stereo not drawn) [Example 134, 3-Ethyl-6-methyl-5-{5-[(1,2,3,4-tetrahydro-naphthalen-2-ylamino)-methyl]thiophen-2-yl}-1H-pyridin-2-one hydrochloride]: the IC50 in experiment [2] stood at 0.8 µM.

Take `CCc1cc(-c2ccc(S(=O)(=O)NCCN3CCCC3)o2)c(C)[nH]c1=O` [Example 53, 5-(5-Ethyl-2-methyl-6-oxo-1,6-dihydropyridin-3-yl)furan-2-sulfonic acid (2-pyrrolidin-1-yl)ethylamide hydrochloride]: the IC50 in experiment [2] was 0.16 µM.

As for `CCc1cc(-c2ccc(CNCc3cccc(C(F)(F)F)c3F)s2)c(C)[nH]c1=O` [Example 178, 3-Ethyl-5-{5-[(2-fluoro-3-trifluoromethylbenzylamino)methyl](thiophen-2-yl)-6-methyl-1H-pyridin-2-one hydrochloride], the IC50 in experiment [2] was found to be 0.4 µM.

In the case of `CCc1cc(-c2ccc(CNC3CCN(Cc4ccccc4)CC3)s2)c(C)[nH]c1=O` [Example 151, 5-{5-[(1-Benzyl-piperidin-4-ylamino)-methyl]thiophen-2-yl}-3-ethyl-6-methyl-1H-pyridin-2-one dihydrochloride], the IC50 in experiment [2] turned out to be 0.92 µM.

As to `CCc1cc(-c2ccc(S(=O)(=O)NCC3CCN(C(=O)OC(C)(C)C)CC3)s2)c(C)[nH]c1=O` [Example 41-1, 5-(5-Ethyl-2-methyl-6-oxo-1,6-dihydropyridin-3-yl)thiophene-2-sulfonic acid (1-tert-butyloxycarbonylpiperidin-4-yl)methylamide], the IC50 in experiment [2] was determined as 1.5 µM.

For the compound `CCc1cc(-c2ccc(CNCCO)s2)c(C)[nH]c1=O` [Example 128, 3-Ethyl-5-{5-[(2-hydroxy-ethylamino)-methyl]thiophen-2-yl}-6-methyl-1H-pyridin-2-one hydrochloride], the IC50 in experiment [2] was found to be 0.46 µM.

With `CCc1cc(-c2ccc(CN3CCC(c4ccccc4)CC3)s2)c(C)[nH]c1=O` [Example 184, 3-Ethyl-6-methyl-5-[5-(4-phenylpiperidin-1-ylmethyl)thiophen-2-yl]-1H-pyridin-2-one hydrochloride], in experiment [2], the IC50 worked out at 2.7 µM.

Take `CCc1cc(-c2ccc(CN3CCOCC3)c(C#N)c2)c(C)[nH]c1=O` [Example 2, 5-(5-Ethyl-2-methyl-6-oxo-1,6-dihydropyridin-3-yl)-2-(morpholin-4-yl)methylbenzonitrile]: in experiment [2], the IC50 came to 4.5 µM.

As for `CCc1cc(-c2ccc(CNCc3ccccn3)s2)c(C)[nH]c1=O` [Example 195, 3-Ethyl-6-methyl-5-(5-{[(pyridin-2-ylmethyl)amino]methyl}thiophen-2-yl)-1H-pyridin-2-one hydrochloride], the IC50 in experiment [2] came out at 0.67 µM.

As for `CCc1cc(-c2ccc(S(=O)(=O)NCC3CCCO3)s2)c(C)[nH]c1=O` (stereo not drawn) [Example 112, 5-(5-Ethyl-2-methyl-6-oxo-1,6-dihydropyridin-3-yl)thiophene-2-sulfonic acid (tetrahydrofuran-2-ylmethyl)amide], in experiment [2], the IC50 amounted to 1.2 µM.

Regarding `CCc1cc(-c2ccc(S(=O)(=O)N3CCN(CCN4CCCCC4)CC3)s2)c(C)[nH]c1=O` [Example 57, 3-Ethyl-6-methyl-5-{5-[4-(2-piperidin-1-yl)ethylpiperizine-1-sulfonyl]thiophen-2-yl}-1H-pyridin-2-one dihydrochloride], the IC50 in experiment [2] was determined as 5.7 µM.

On to `CCc1cc(-c2ccc(CN3CCCC(CO)C3)s2)c(C)[nH]c1=O` (stereo not drawn) [Example 131, 3-Ethyl-5-[5-(3-hydroxymethyl-piperidin-1-ylmethyl)-thiophen-2-yl]-6-methyl-1H-pyridin-2-one hydrochloride], for which the IC50 in experiment [2] is 0.47 µM.

With `CCc1cc(-c2ccc(CNCc3ccc(OC)cc3)s2)c(C)[nH]c1=O` [Example 169, 5-{5-[(4-Methoxybenzylamino)methyl]thiophen-2-y}]-3-ethyl-6-methyl-1H-pyridin-2-one hydrochloride], the IC50 in experiment [2] turned out to be 0.6 µM.
